Data as given in ChEMBL document CHEMBL1122262, “Quantitative structure-activity relationships employing independent quantum chemical indices” (1983).

Key:
Mus musculus = species on record: Mus musculus; assay: Logarithm of effective dose evaluated using the foot-shock test in mice; type: functional
[1] = biological target: T1, Phenylethanolamine N-methyltransferase (Homo sapiens) (UniProt P11086); details: Oryctolagus cuniculus
T1 sequence (whole entry): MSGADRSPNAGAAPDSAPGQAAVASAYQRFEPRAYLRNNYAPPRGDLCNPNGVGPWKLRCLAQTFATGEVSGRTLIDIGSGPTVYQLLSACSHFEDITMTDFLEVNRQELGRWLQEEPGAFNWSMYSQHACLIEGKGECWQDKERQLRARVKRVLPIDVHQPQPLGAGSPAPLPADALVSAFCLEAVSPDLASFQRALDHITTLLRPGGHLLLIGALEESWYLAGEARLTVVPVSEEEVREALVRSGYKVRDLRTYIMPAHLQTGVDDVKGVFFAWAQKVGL
Description: Inhibition of phenylethanolamine N-methyltransferase(PNMT)activity

Escherichia coli = assay: Logarithm of the inhibitory rate constant against Escherichia coli; type: functional

Compound	Log ED50 (Mus musculus) [mM kg-1]	Log rate constant (Escherichia coli)	further results
CN1C(=O)CN=C(c2ccccc2Cl)c2cc(Cl)ccc21	1.5	–	–
NCc1cc(Cl)ccc1Cl	–	–	pI50 [1]: 4.82
CN(C)[C@@H]1C(=O)C(C(N)=O)=C(O)[C@@]2(O)C(O)=C3C(=O)c4c(O)cccc4[C@](C)(O)C3C[C@@H]12 (some centres undefined)	–	2.43 M-1 s-1	–
NCc1cccc(F)c1	–	–	pI50 [1]: 4
O=C1CN=C(c2ccccc2)c2cc([N+](=O)[O-])ccc2N1 [NITRAZEPAM]	1.75	–	–
CN(C)[C@@H]1C(=O)C(C(N)=O)=C(O)C2C(=O)C3=C(O)c4c(O)cccc4CC3C[C@H]21 (some centres undefined)	–	0.41 M-1 s-1	–
Cc1c2c(c(O)c3c(O)cccc13)C(=O)C1C(O)=C(C(N)=O)C(=O)[C@@H](N(C)C)[C@@H]1C2 (some centres undefined)	–	1.19 M-1 s-1	–
NCc1ccc(C(F)(F)F)cc1	–	–	pI50 [1]: 5.2
CSc1ccc2c(c1)C(c1ccccc1)=NCC(=O)N2C	0.87	–	–
Cc1cccc(CN)c1	–	–	pI50 [1]: 3.82
CN(C)[C@@H]1C(=O)C(C(N)=O)=C(O)[C@@]2(O)C(O)=C3C(=O)c4c(O)ccc(Cl)c4[C@](C)(O)C3C[C@@H]12 (some centres undefined)	–	2.6 M-1 s-1	–
Cc1ccc(CN)cc1	–	–	pI50 [1]: 3.16
CN1C(=O)CN=C(c2ccccc2F)c2ccccc21 [RO-054520]	0.83	–	–
CN1C(=O)CN=C(c2ccccc2Cl)c2cc([N+](=O)[O-])ccc21 [RO-054082]	2.12	–	–
NCc1ccc(Cl)cc1Cl	–	–	pI50 [1]: 4.68
CN1C(=O)CN=C(c2ccccc2C(F)(F)F)c2cc([N+](=O)[O-])ccc21	1.86	–	–
NCc1ccccc1C(F)(F)F	–	–	pI50 [1]: 4.64
CN(C)[C@@H]1C(=O)C(C(N)=O)=C(O)[C@@]2(O)C(=O)C3=C(O)c4c(O)ccc(N)c4CC3C[C@@H]12 (some centres undefined)	–	2.26 M-1 s-1	–
CN(C)[C@@H]1C(=O)C(C(N)=O)=C(O)[C@@]2(O)C(=O)C3=C(O)c4c(O)ccc([N+](=O)[O-])c4CC3C[C@@H]12 (some centres undefined)	–	2.87 M-1 s-1	–
CN(C)[C@@H]1C(=O)C(C(N)=O)=C(O)[C@@]2(O)C(=O)C3=C(O)c4c(O)ccc(Cl)c4C(O)C3C[C@@H]12 (some centres undefined)	–	2.71 M-1 s-1	–
CSc1ccc2c(c1)C(c1ccccc1)=NCC(=O)N2	1.15	–	–
CN1C(=O)CN=C(c2ccccc2F)c2cc(Cl)ccc21 [FLUDIAZEPAM]	1.78	–	–

Compound	Log ED50 (Mus musculus) [mM kg-1]	Log rate constant (Escherichia coli)	further results
CN(C)[C@@H]1C(=O)C(C(N)=O)=C(O)[C@@]2(O)C(=O)C3=C(O)c4c(O)ccc(Br)c4CC3C[C@@H]12 (some centres undefined)	–	1.71 M-1 s-1	–
CN1C(=O)CN=C(c2ccccc2F)c2cc([N+](=O)[O-])ccc21 [FLUNITRAZEPAM]	2.59	–	–
CN(C)[C@@H]1C(O)=C(C(N)=O)C(=O)[C@@]2(O)C(O)=C3C(=O)c4c(O)cccc4C[C@H]3C[C@@H]12 [SANCYCLINE]	–	1.98 M-1 s-1	–
O=C1CN=C(c2ccccc2)c2ccccc2N1 [RO-052921]	0.37	–	–
CN(C)[C@@H]1C(=O)C(C(N)=O)=C(O)[C@@]2(O)C(=O)C3=C(O)c4c(ccc(N)c4O)CC3C[C@@H]12 (some centres undefined)	–	2.16 M-1 s-1	–
CN(C)c1ccc2c(c1)C(c1ccccc1)=NCC(=O)N2C	0.86	–	–
O=C1CN=C(c2ccccc2)c2cc(C(F)(F)F)ccc2N1 [RO-052904]	1.48	–	–
CN(C)[C@@H]1C(=O)C(C(N)=O)=C(O)[C@@]2(O)C(O)=C3C(=O)c4c(O)cccc4[C@](C)(O)C3C(=O)[C@@H]12 (some centres undefined)	–	2.41 M-1 s-1	–
N#Cc1ccc2c(c1)C(c1ccccc1)=NCC(=O)N2	0.81	–	–
CN(C)c1ccc2c(c1O)C(O)=C1C(=O)[C@]3(O)C(O)=C(C(N)=O)C(=O)[C@@H](N(C)C)[C@@H]3CC1C2 (some centres undefined)	–	1.37 M-1 s-1	–
NCc1ccccc1F	–	–	pI50 [1]: 3.87
Cc1ccccc1CN	–	–	pI50 [1]: 4.17
CN1C(=O)CN=C(c2ccccc2)c2cc(C#N)ccc21	1.74	–	–
NCc1cccc(C(F)(F)F)c1	–	–	pI50 [1]: 5.64
CN1C(=O)CN=C(c2ccccc2)c2cc([N+](=O)[O-])ccc21 [NIMETAZEPAM]	2.07	–	–
CN(C)[C@@H]1C(=O)C(C(N)=O)=C(O)C2C(O)C3=C(C[C@H]21)[C@@](C)(O)c1c(Cl)ccc(O)c1C3=O (some centres undefined)	–	-0.47 M-1 s-1	–
O=C1CN=C(c2ccccc2)c2cc(F)ccc2N1 [RO-053061]	0.4	–	–
NCc1cccc(Cl)c1	–	–	pI50 [1]: 5.07
CN1C(=O)CN=C(c2ccccc2)c2cc(Cl)ccc21 [DIAZEPAM]	1.45	–	–
CN(C)[C@@H]1C(=O)C(C(N)=O)=C(O)[C@@]2(O)C(=O)C3=C(O)c4c(ccc([N+](=O)[O-])c4O)CC3C[C@@H]12 (some centres undefined)	–	1.65 M-1 s-1	–
CN(C)c1ccc2c(c1)C(c1ccccc1Cl)=NCC(=O)N2C	0.61	–	–
Cc1cccc(CN)c1C	–	–	pI50 [1]: 4.24
